Assay results taken from ChEMBL document CHEMBL1129179, “Antimicrobial evaluation of 3,1-benzoxazin-4-ones, 3,1-benzothiazin-4-ones, 4-alkoxyquinazolin-2-carbonitriles and N-arylimino-1,2,3-dithiazoles” (1996).
Values after ≈ are worked out from the molar mass of the structure shown.

Legend:
Type in all cases: functional
Cryptococcus neoformans [1] = test: Minimum inhibitory concentration required for antifungal activity against Cryptococcus neoformans DSM 70219 strain
[2] = Ratio of MFC99/MIC for antifungal activity against Candida glabrata DSM 6425 strain was determined
Candida albicans [3] = test: Minimum fungicidal concentration required for antifungal activity against Candida albicans ATCC 10231 strain
Cryptococcus neoformans [4] = test: Minimum fungicidal concentration required for antifungal activity against Cryptococcus neoformans DSM 70219 strain
Nakaseomyces glabratus [5] = test: Minimum inhibitory concentration required for antifungal activity against Candida glabrata DSM 6425 strain
[6] = Ratio of MFC99/MIC for antifungal activity against Issatchenkia orientalis DSM 6128 strain was determined
Pichia kudriavzevii [7] = test: Minimum fungicidal concentration required for antifungal activity against Issatchenkia orientalis DSM 6128 strain
Candida tropicalis [8] = test: Minimum inhibitory concentration required for antifungal activity against Candida tropicalis DSM 1346 strain
[9] = Ratio of MFC99/MIC for antifungal activity against Candida tropicalis DSM 1346 strain was determined
[10] = Ratio of MFC99/MIC for antifungal activity against Cryptococcus neoformans DSM 70219 strain was determined
Candida albicans [11] = test: Minimum inhibitory concentration required for antifungal activity against Candida albicans ATCC 10231 strain
Nakaseomyces glabratus [12] = test: Minimum fungicidal concentration required for antifungal activity against Candida glabrata DSM 6425 strain
Pichia kudriavzevii [13] = test: Minimum inhibitory concentration required for antifungal activity against Issatchenkia orientalis DSM 6128 strain
Candida tropicalis [14] = test: Minimum fungicidal concentration required for antifungal activity against Candida tropicalis DSM 1346 strain
[15] = Ratio of MFC99/MIC for antifungal activity against Candida albicans ATCC 10231 strain was determined

Row | Structure (SMILES) | MIC (Cryptococcus neoformans [1]) | Ratio [2] | MFC99 (Candida albicans [3]) | MFC99 (Cryptococcus neoformans [4]) | MIC (Nakaseomyces glabratus [5]) | Ratio [6] | MFC99 (Pichia kudriavzevii [7]) | MIC (Candida tropicalis [8]) | Ratio [9] | Ratio [10] | MIC (Candida albicans [11]) | MFC99 (Nakaseomyces glabratus [12]) | MIC (Pichia kudriavzevii [13]) | MFC99 (Candida tropicalis [14]) | Ratio [15]
1 | C[C@@H]1[C@H](O)[C@@H](C)/C=C/C=C/C=C/C=C/C=C/C=C/C=C/[C@H](O[C@@H]2O[C@H](C)[C@@H](O)[C@H](N)[C@@H]2O)C[C@@H]2O[C@](O)(C[C@@H](O)C[C@@H](O)[C@H](O)CC[C@@H](O)C[C@@H](O)CC(=O)O[C@H]1C)C[C@H](O)[C@H]2C(=O)O [AMPHOTERICIN B] | 0.13 µg/mL (≈ 0.141 µM) | 2 | 0.5 µg/mL (≈ 0.541 µM) | 0.5 µg/mL (≈ 0.541 µM) | 1 µg/mL (≈ 1.08 µM) | 2 | 1 µg/mL (≈ 1.08 µM) | 1 µg/mL (≈ 1.08 µM) | 2 | 3.8 | 0.25 µg/mL (≈ 0.271 µM) | 2 µg/mL (≈ 2.16 µM) | 0.5 µg/mL (≈ 0.541 µM) | 2 µg/mL (≈ 2.16 µM) | 2
2 | COc1cc(/N=c2\ssnc2Cl)cc(OC)c1OC | 16 µg/mL (≈ 50.2 µM) | 1 | 16 µg/mL (≈ 50.2 µM) | 32 µg/mL (≈ 100 µM) | 16 µg/mL (≈ 50.2 µM) | 2 | 32 µg/mL (≈ 100 µM) | 16 µg/mL (≈ 50.2 µM) | 2 | 2 | 16 µg/mL (≈ 50.2 µM) | 16 µg/mL (≈ 50.2 µM) | 16 µg/mL (≈ 50.2 µM) | 32 µg/mL (≈ 100 µM) | 1
3 | COC(=O)c1ccccc1/N=c1\ssnc1Cl | 32 µg/mL (≈ 112 µM) | 2 | 16 µg/mL (≈ 55.8 µM) | 32 µg/mL (≈ 112 µM) | 16 µg/mL (≈ 55.8 µM) | 2 | 32 µg/mL (≈ 112 µM) | 16 µg/mL (≈ 55.8 µM) | 1 | 1 | 16 µg/mL (≈ 55.8 µM) | 32 µg/mL (≈ 112 µM) | 16 µg/mL (≈ 55.8 µM) | 16 µg/mL (≈ 55.8 µM) | 1
4 | N#Cc1ccccc1/N=c1\ssnc1Cl | 16 µg/mL (≈ 63.1 µM) | 1 | 16 µg/mL (≈ 63.1 µM) | 16 µg/mL (≈ 63.1 µM) | 16 µg/mL (≈ 63.1 µM) | 1 | 16 µg/mL (≈ 63.1 µM) | 16 µg/mL (≈ 63.1 µM) | 1 | 1 | 16 µg/mL (≈ 63.1 µM) | 16 µg/mL (≈ 63.1 µM) | 16 µg/mL (≈ 63.1 µM) | 16 µg/mL (≈ 63.1 µM) | 1
5 | COc1ccc(/N=c2\ssnc2Cl)cc1 | 8 µg/mL (≈ 30.9 µM) | 1 | 16 µg/mL (≈ 61.8 µM) | 8 µg/mL (≈ 30.9 µM) | 16 µg/mL (≈ 61.8 µM) | 1 | 16 µg/mL (≈ 61.8 µM) | 16 µg/mL (≈ 61.8 µM) | 1 | 1 | 16 µg/mL (≈ 61.8 µM) | 16 µg/mL (≈ 61.8 µM) | 16 µg/mL (≈ 61.8 µM) | 16 µg/mL (≈ 61.8 µM) | 1
